Our source for the half-life values is ChEMBL document CHEMBL4673312, “Optimization of piperidine constructed peptidyl derivatives as proteasome inhibitors” (Bioorg Med Chem, 2021).

This series is described as follows: in vitro. The following applies: rat, plasma.

One may read the half-life as the time needed for the level to fall by half in the phase considered. Low values mean rapid decline, high ones slow decline. `CC(C)(C)CNC(=O)C[C@H](NC(=O)[C@H](CC(=O)NCC(C)(C)C)NC(=O)N1CCC(C(=O)Nc2cccnc2)CC1)C(=O)NCc1ccccc1Cl` gave a half-life at 2 µM of 1.2 h.
The value for `CC(C)(C)CNC(=O)C[C@H](NC(=O)N1CCC(NC(=O)c2ccc(F)cc2)CC1)C(=O)N[C@@H](CCc1ccccc1)C(=O)NCc1ccccc1Cl` was 1.53 h.
